Measured values published in publication PMC3038380 (Bioorganic & Medicinal Chemistry, 2010).

What was measured:
[1] = NMR chemical shift titration with DPC-d38; type: binding; settings: pH 5.0, 1.0 mM octanoic acid or 1.14 mM ghrelin
[2] = free C8 fatty acid; cited from earlier work

What does the source list for `CCCCCCCC(=O)O` [octanoic acid]?
unitary Gibbs free energy ΔGu0 of binding to DPC micelles [1]: -8.6 kcal/mol; free energy for the transfer from aqueous into a hydrophobic environment [2]: -1.5 kcal/mol
